Reference: patent publication US7994140B2, “Classes of compounds that interact with GPCRs” (Alchemia Limited, priority 2002, dated 2011)

Assays:
SST5 = target: T1, SST5 (Homo sapiens, UniProt P35346); test: GPCR radioligand binding (RLB) assay, somatostatin SST5, [125I]SST-14; conditions: for SST5 inhibition at 10 micromolar: 10 micromolar compound, recombinant human receptor membranes (HEK 293); for SSTS inhibition at 10 micromolar: Example Library 4
T1 construct: purchased Perkin Elmer BioSignal; host or cells: HEK 293
T1 sequence (P35346 whole entry): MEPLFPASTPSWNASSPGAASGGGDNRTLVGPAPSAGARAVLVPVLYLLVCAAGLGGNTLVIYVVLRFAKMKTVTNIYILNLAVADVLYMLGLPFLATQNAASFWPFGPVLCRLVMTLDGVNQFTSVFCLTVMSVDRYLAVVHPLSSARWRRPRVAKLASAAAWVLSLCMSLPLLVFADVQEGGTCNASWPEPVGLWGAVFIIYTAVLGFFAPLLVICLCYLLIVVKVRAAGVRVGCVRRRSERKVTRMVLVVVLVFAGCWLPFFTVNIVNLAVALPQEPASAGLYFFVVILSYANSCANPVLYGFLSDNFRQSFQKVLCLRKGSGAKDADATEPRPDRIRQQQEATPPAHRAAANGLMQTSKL
Method in brief: (§1)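 Membranes from HEK 293 cells expressing the recombinant human receptor were equilibrated with [125I]SST-14 (SST5) or [125I]NDP-αMSH (MC4), then compound added for an optimized incubation. Bound ligand separated by filtration on PEI-coated glass fiber and counted by liquid scintillation.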

MC4 = target: T2, MC4 (Homo sapiens, UniProt P32245); test: GPCR radioligand binding (RLB) assay, melanocortin MC4, [125I]NDP-αMSH
T2 construct: purchased Perkin Elmer BioSignal; host or cells: HEK 293
T2 sequence (P32245 whole entry): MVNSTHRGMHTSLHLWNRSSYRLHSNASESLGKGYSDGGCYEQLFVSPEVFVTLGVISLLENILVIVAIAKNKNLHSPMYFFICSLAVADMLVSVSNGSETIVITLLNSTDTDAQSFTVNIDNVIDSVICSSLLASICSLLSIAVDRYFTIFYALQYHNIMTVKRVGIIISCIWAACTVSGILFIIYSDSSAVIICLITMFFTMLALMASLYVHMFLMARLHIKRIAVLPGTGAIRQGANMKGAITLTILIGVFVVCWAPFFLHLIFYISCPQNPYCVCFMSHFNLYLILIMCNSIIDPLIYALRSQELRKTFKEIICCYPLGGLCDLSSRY
Method in brief: as §1

[1] = 10 micromolar compound, recombinant human receptor membranes (HEK 293)
[2] = 10 micromolar, Example Library 4

Compound	SST5 inhibition at 10 micromolar (SST5)	MC4 inhibition at 10 micromolar (MC4; [1])	SSTS inhibition at 10 micromolar (SST5)	MC4 inhibition at 10 micromolar (MC4; [2])
CSC1OC(COCc2ccc3ccccc3c2)C(O)C(OCc2ccc3ccccc3c2)C1NC(=O)CNC(=N)N (stereo not shown) [Compound 210]	+ (Indicates inhibition greater than . . . 50%)	+ (Indicates inhibition greater than . . . 50%)		
CSC1OC(COCc2ccc3ccccc3c2)C(O)C(OCc2ccc3ccccc3c2)C1NC(=O)CCN (stereo not shown) [Compound 211]	+ (Indicates inhibition greater than . . . 50%)	+ (Indicates inhibition greater than . . . 50%)		
CSC1OC(COCc2ccc3ccccc3c2)C(O)C(OCc2ccc3ccccc3c2)C1NC(=O)CCNC(=N)N (stereo not shown) [Compound 212]	+ (Indicates inhibition greater than . . . 50%)	+ (Indicates inhibition greater than . . . 50%)		
COCC1OC(OCc2ccccc2)C(NC(=O)CNC(=N)N)C(OCc2ccccc2)C1O (stereo not shown) [Compound 214]			+ (Indicates inhibition greater than . . . 50%)	+ (Indicates inhibition greater than . . . 50%)
COCC1OC(OCc2ccccc2)C(NC(=O)CCNC(=N)N)C(OCc2ccccc2)C1O (stereo not shown) [Compound 216]			+ (Indicates inhibition greater than . . . 50%)	+ (Indicates inhibition greater than . . . 50%)
COCC1OC(OCc2ccccc2)C(NC(=O)CCCNC(=N)N)C(OCc2ccccc2)C1O (stereo not shown) [Compound 218]			+ (Indicates inhibition greater than . . . 50%)	+ (Indicates inhibition greater than . . . 50%)
COCC1OC(OCc2ccccc2)C(NC(=O)CN)C(OCc2ccc(Cl)cc2)C1O (stereo not shown) [Compound 219]			+ (Indicates inhibition greater than . . . 50%)	+ (Indicates inhibition greater than . . . 50%)
COCC1OC(OCc2ccccc2)C(NC(=O)CNC(=N)N)C(OCc2ccc(Cl)cc2)C1O (stereo not shown) [Compound 220]			+ (Indicates inhibition greater than . . . 50%)	+ (Indicates inhibition greater than . . . 50%)
COCC1OC(OCc2ccccc2)C(NC(=O)CCN)C(OCc2ccc(Cl)cc2)C1O (stereo not shown) [Compound 221]			+ (Indicates inhibition greater than . . . 50%)	+ (Indicates inhibition greater than . . . 50%)
COCC1OC(OCc2ccccc2)C(NC(=O)CCNC(=N)N)C(OCc2ccc(Cl)cc2)C1O (stereo not shown) [Compound 222]			+ (Indicates inhibition greater than . . . 50%)	+ (Indicates inhibition greater than . . . 50%)
COCC1OC(OCc2ccccc2)C(NC(=O)CCCN)C(OCc2ccc(Cl)cc2)C1O (stereo not shown) [Compound 223]			+ (Indicates inhibition greater than . . . 50%)	+ (Indicates inhibition greater than . . . 50%)
COCC1OC(OCc2ccccc2)C(NC(=O)CCCNC(=N)N)C(OCc2ccc(Cl)cc2)C1O (stereo not shown) [Compound 224]			+ (Indicates inhibition greater than . . . 50%)	+ (Indicates inhibition greater than . . . 50%)
COCC1OC(OCc2ccccc2)C(NC(=O)CN)C(OCc2ccc(-c3ccccc3)cc2)C1O (stereo not shown) [Compound 225]			+ (Indicates inhibition greater than . . . 50%)	+ (Indicates inhibition greater than . . . 50%)
COCC1OC(OCc2ccccc2)C(NC(=O)CNC(=N)N)C(OCc2ccc(-c3ccccc3)cc2)C1O (stereo not shown) [Compound 226]			+ (Indicates inhibition greater than . . . 50%)	+ (Indicates inhibition greater than . . . 50%)
COCC1OC(OCc2ccccc2)C(NC(=O)CCN)C(OCc2ccc(-c3ccccc3)cc2)C1O (stereo not shown) [Compound 227]			+ (Indicates inhibition greater than . . . 50%)	+ (Indicates inhibition greater than . . . 50%)
COCC1OC(OCc2ccccc2)C(NC(=O)CCNC(=N)N)C(OCc2ccc(-c3ccccc3)cc2)C1O (stereo not shown) [Compound 228]			+ (Indicates inhibition greater than . . . 50%)	+ (Indicates inhibition greater than . . . 50%)
COCC1OC(OCc2ccccc2)C(NC(=O)CCCN)C(OCc2ccc(-c3ccccc3)cc2)C1O (stereo not shown) [Compound 229]			+ (Indicates inhibition greater than . . . 50%)	+ (Indicates inhibition greater than . . . 50%)
COCC1OC(OCc2ccccc2)C(NC(=O)CCCNC(=N)N)C(OCc2ccc(-c3ccccc3)cc2)C1O (stereo not shown) [Compound 230]			+ (Indicates inhibition greater than . . . 50%)	+ (Indicates inhibition greater than . . . 50%)
COCC1OC(OCc2ccccc2)C(NC(=O)CNC(=N)N)C(OCc2ccc3ccccc3c2)C1O (stereo not shown) [Compound 232]			+ (Indicates inhibition greater than . . . 50%)	+ (Indicates inhibition greater than . . . 50%)

Compound	SST5 inhibition at 10 micromolar (SST5)	MC4 inhibition at 10 micromolar (MC4; [1])	SSTS inhibition at 10 micromolar (SST5)	MC4 inhibition at 10 micromolar (MC4; [2])
COCC1OC(OCc2ccccc2)C(NC(=O)CCN)C(OCc2ccc3ccccc3c2)C1O (stereo not shown) [Compound 233]			+ (Indicates inhibition greater than . . . 50%)	+ (Indicates inhibition greater than . . . 50%)
COCC1OC(OCc2ccccc2)C(NC(=O)CCNC(=N)N)C(OCc2ccc3ccccc3c2)C1O (stereo not shown) [Compound 234]			+ (Indicates inhibition greater than . . . 50%)	+ (Indicates inhibition greater than . . . 50%)
COCC1OC(OCc2ccccc2)C(NC(=O)CCCN)C(OCc2ccc3ccccc3c2)C1O (stereo not shown) [Compound 235]			+ (Indicates inhibition greater than . . . 50%)	+ (Indicates inhibition greater than . . . 50%)
COCC1OC(OCc2ccccc2)C(NC(=O)CCCNC(=N)N)C(OCc2ccc3ccccc3c2)C1O (stereo not shown) [Compound 236]			+ (Indicates inhibition greater than . . . 50%)	+ (Indicates inhibition greater than . . . 50%)
COCC1OC(OCc2ccc(Cl)cc2)C(NC(=O)CNC(=N)N)C(OCc2ccccc2)C1O (stereo not shown) [Compound 237]			+ (Indicates inhibition greater than . . . 50%)	+ (Indicates inhibition greater than . . . 50%)
COCC1OC(OCc2ccc(Cl)cc2)C(NC(=O)CCNC(=N)N)C(OCc2ccccc2)C1O (stereo not shown) [Compound 239]			+ (Indicates inhibition greater than . . . 50%)	+ (Indicates inhibition greater than . . . 50%)
COCC1OC(OCc2ccc(Cl)cc2)C(NC(=O)CCCNC(=N)N)C(OCc2ccccc2)C1O (stereo not shown) [Compound 241]			+ (Indicates inhibition greater than . . . 50%)	+ (Indicates inhibition greater than . . . 50%)
COCC1OC(OCc2ccc(Cl)cc2)C(NC(=O)CN)C(OCc2ccc(Cl)cc2)C1O (stereo not shown) [Compound 242]			+ (Indicates inhibition greater than . . . 50%)	+ (Indicates inhibition greater than . . . 50%)
COCC1OC(OCc2ccc(Cl)cc2)C(NC(=O)CNC(=N)N)C(OCc2ccc(Cl)cc2)C1O (stereo not shown) [Compound 243]			+ (Indicates inhibition greater than . . . 50%)	+ (Indicates inhibition greater than . . . 50%)
COCC1OC(OCc2ccc(Cl)cc2)C(NC(=O)CCN)C(OCc2ccc(Cl)cc2)C1O (stereo not shown) [Compound 244]			+ (Indicates inhibition greater than . . . 50%)	+ (Indicates inhibition greater than . . . 50%)
COCC1OC(OCc2ccc(Cl)cc2)C(NC(=O)CCNC(=N)N)C(OCc2ccc(Cl)cc2)C1O (stereo not shown) [Compound 245]			+ (Indicates inhibition greater than . . . 50%)	+ (Indicates inhibition greater than . . . 50%)
COCC1OC(OCc2ccc(Cl)cc2)C(NC(=O)CCCN)C(OCc2ccc(Cl)cc2)C1O (stereo not shown) [Compound 246]			+ (Indicates inhibition greater than . . . 50%)	+ (Indicates inhibition greater than . . . 50%)
COCC1OC(OCc2ccc(Cl)cc2)C(NC(=O)CCCNC(=N)N)C(OCc2ccc(Cl)cc2)C1O (stereo not shown) [Compound 247]			+ (Indicates inhibition greater than . . . 50%)	+ (Indicates inhibition greater than . . . 50%)
COCC1OC(OCc2ccc(Cl)cc2)C(NC(=O)CN)C(OCc2ccc(-c3ccccc3)cc2)C1O (stereo not shown) [Compound 248]			+ (Indicates inhibition greater than . . . 50%)	+ (Indicates inhibition greater than . . . 50%)
COCC1OC(OCc2ccc(Cl)cc2)C(NC(=O)CNC(=N)N)C(OCc2ccc(-c3ccccc3)cc2)C1O (stereo not shown) [Compound 249]			+ (Indicates inhibition greater than . . . 50%)	+ (Indicates inhibition greater than . . . 50%)
COCC1OC(OCc2ccc(Cl)cc2)C(NC(=O)CCN)C(OCc2ccc(-c3ccccc3)cc2)C1O (stereo not shown) [Compound 250]			+ (Indicates inhibition greater than . . . 50%)	+ (Indicates inhibition greater than . . . 50%)
COCC1OC(OCc2ccc(Cl)cc2)C(NC(=O)CCNC(=N)N)C(OCc2ccc(-c3ccccc3)cc2)C1O (stereo not shown) [Compound 251]			+ (Indicates inhibition greater than . . . 50%)	+ (Indicates inhibition greater than . . . 50%)
COCC1OC(OCc2ccc(Cl)cc2)C(NC(=O)CCCN)C(OCc2ccc(-c3ccccc3)cc2)C1O (stereo not shown) [Compound 252]			+ (Indicates inhibition greater than . . . 50%)	+ (Indicates inhibition greater than . . . 50%)
COCC1OC(OCc2ccc(Cl)cc2)C(NC(=O)CCCNC(=N)N)C(OCc2ccc(-c3ccccc3)cc2)C1O (stereo not shown) [Compound 253]			+ (Indicates inhibition greater than . . . 50%)	+ (Indicates inhibition greater than . . . 50%)
